Key:
S. epidermidis biofilm = assay: Antibiotic susceptibility assay of cells attached on wafers with different dose of ciprofloxacin; assay type: cell-based; settings: for decrease of the number of bacteria recovered from biofilms / bacteria recovered: 128 μg/ml; for decrease of the number of bacteria recovered from biofilms: 48 hours
Protocol: Antibiotic susceptibility assay of S. epidermidis cells attached on wafers with different dose of antibiotics. Biofilm formation on the four groups of wafers in triplicate was performed as described in biofilm formation assay section. The wafers with biofilms were gently washed four times with PBS to remove non-adherent bacterial cells. Then fresh Mueller Hinton broth (MHB) with 0, 2, 8, 32, and 128 μg/ml ciprofloxacin (Sigma-Aldrich, St Louis, Mo.) was added into the wells containing wafers and cultured at 37° C. for 48 hours, with MHB medium with corresponding concentration of ciprofloxacin changed every 12 hours. The wafers were washed four times with PBS and bacteria numbers on the wafers were counted.

[1] = system: S. epidermidis RP62A biofilm; assay: Susceptibility of bacterial cells in biofilm to 6 μg/ml antibiotic; assay type: cell-based; settings: for reduction of bacterial count in biofilm: 8 hours
Protocol: Susceptibility of bacterial cells in biofilm to antibiotics was studied with a protocol established previously with modification. SS and Ti wafers (1×1 cm) were sterilized, coated with human plasma, and placed into the wells of 24-well microplates. Overnight culture of S. epidermidis was diluted 1:200 into fresh THY medium with 0.5% glucose. Aliquots (1 ml) of the cell suspensions were seeded into each well containing wafers and incubated at 37° C. for 16 hours. The wafers were gently washed three times with PBS to remove non-adherent bacterial cells. Then fresh Mueller Hinton broth (MHB) with and without 6 μg/ml vancomycin or ciprofloxacin was added into the wells containing wafers and cultured at 37° C. for 8 hours. The wafers were washed four times with PBS and then put into tubes with PBS. The biofilms on wafers were detached and disaggregated with ultrasonic bath treatment. The number of bacterial cells was quantified using the spread plate technique. Response to antibiotic treatment of a treated sample was defined as the percentage of untreated samples calculated by CFU numbers. Triplicate of wafers were used in each experiments and four independent experiments were performed for vacomycin and three independent experiments were performed for ciprofloxacin.

SMILES	number of bacteria, percent of bacteria on bare surfaces with neither TMS coating nor ciprofloxacin treatment (S. epidermidis biofilm; 8 μg/ml, TMS coated surfaces)	number of bacteria, percent of bacteria on TMS coated surfaces without ciprofloxacin treatment (S. epidermidis biofilm; 32 μg/ml, TMS coated surfaces)	decrease of the number of bacteria recovered from biofilms (S. epidermidis biofilm; uncoated SS surfaces) [%]	decrease of the number of bacteria recovered from biofilms (S. epidermidis biofilm; uncoated Ti surfaces) [%]	bacteria recovered (S. epidermidis biofilm; TMS coated SS surfaces)	bacteria recovered (S. epidermidis biofilm; TMS coated Ti surfaces)	MBC for biofilms (S. epidermidis biofilm; biofilms on TMS coated surfaces, MBC = 99.9% (3 log10 units) decrease)	MBC for bacteria in biofilms (S. epidermidis biofilm; biofilms on uncoated surfaces)	reduction of bacterial count in biofilm ([1]; TMS coated SS wafer)	reduction of bacterial count in biofilm ([1]; TMS coated Ti wafer) [%]	reduction of bacterial count in biofilm ([1]; uncoated SS wafer) [%]	reduction of bacterial count in biofilm ([1]; uncoated Ti wafer) [%]	response of bacterial cells to antibiotic treatment ([1]; uncoated wafers)
O=C(O)c1cn(C2CC2)c2cc(N3CCNCC3)c(F)cc2c1=O [ciprofloxacin]	less than 0.01%	less than 0.1%	99.6±0.07	99.3±0.1	177±80	444±217	less than 32 μg/ml	more than 128 μg/ml	99.4±0.1%	96.8±1.4	86±1.2	81.8±3.2	–
CN[C@H](CC(C)C)C(=O)N[C@H]1C(=O)N[C@@H](CC(N)=O)C(=O)N[C@H]2C(=O)N[C@H]3C(=O)N[C@H](C(=O)N[C@H](C(=O)O)c4cc(O)cc(O)c4-c4cc3ccc4O)[C@H](O)c3ccc(c(Cl)c3)Oc3cc2cc(c3O[C@@H]2O[C@H](CO)[C@@H](O)[C@H](O)[C@H]2O[C@H]2C[C@](C)(N)[C@H](O)[C@H](C)O2)Oc2ccc(cc2Cl)[C@H]1O [vacomycin, vancomycin]	–	–	–	–	–	–	–	–	about 83.8±4.3%	91.9±1.6	–	–	resistant

Source: patent US20130183435A1, “LOW TEMPERATURE PLASMA COATING FOR ANTI-BIOFILM FORMATION” (priority 2012, published 2013)
